According to ChEMBL document CHEMBL1649383, “Mode of action of epoxyphomalins A and B and characterization of related metabolites from the marine-derived fungus Paraconiothyrium sp” (J Nat Prod, 2010):

Columns and labels:
Homo sapiens [1] = species: Homo sapiens; test: Inhibition of chymotrypsin like activity of human erythrocyte-derived 20S proteasome after 60 mins by fluorescence assay
Homo sapiens [2] = species: Homo sapiens; test: Inhibition of trypsin like activity of human erythrocyte-derived 20S proteasome after 60 mins by fluorescence assay
Homo sapiens [3] = species: Homo sapiens; test: Inhibition of caspase like activity of human erythrocyte-derived 20S proteasome after 60 mins by fluorescence assay

Measured: Activity

CC1=C[C@@H](O)[C@]2(C[C@H]3C(C)=CC[C@H]4[C@](C)(CO)CCC[C@]34C)O[C@@H]2C1=O
active: Homo sapiens [1] Dose-dependent effect | Homo sapiens [2] Dose-dependent effect | Homo sapiens [3] Dose-dependent effect

CC1=CC[C@H]2[C@](C)(CO)CCC[C@]2(C)[C@H]1C[C@@]12O[C@@H]1C(=O)C(CO)=C[C@H]2O
active: Homo sapiens [1] Dose-dependent effect | Homo sapiens [2] Dose-dependent effect | Homo sapiens [3] Dose-dependent effect
